The source made the active and inactive calls.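 How the source made its calls: active means glutamate fold shift at least 2 as enhancer, or at most 0.5 as blocker, actives on both sides; inactive means the rest.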
Biological target: Metabotropic glutamate receptor 2 (Rattus norvegicus) (UniProt P31421)
Test: glutamate response shift at rat mGlu2 – cell-based, thallium flux, glutamate fold shift, selectivity assay for mGlu4 PAM project, SAR follow-up (AID 623878)
Conditions: rat mGlu2 cells, at 10 µM

Metabotropic glutamate receptor 2 (Rattus norvegicus), sequence (P31421 whole entry, looked up): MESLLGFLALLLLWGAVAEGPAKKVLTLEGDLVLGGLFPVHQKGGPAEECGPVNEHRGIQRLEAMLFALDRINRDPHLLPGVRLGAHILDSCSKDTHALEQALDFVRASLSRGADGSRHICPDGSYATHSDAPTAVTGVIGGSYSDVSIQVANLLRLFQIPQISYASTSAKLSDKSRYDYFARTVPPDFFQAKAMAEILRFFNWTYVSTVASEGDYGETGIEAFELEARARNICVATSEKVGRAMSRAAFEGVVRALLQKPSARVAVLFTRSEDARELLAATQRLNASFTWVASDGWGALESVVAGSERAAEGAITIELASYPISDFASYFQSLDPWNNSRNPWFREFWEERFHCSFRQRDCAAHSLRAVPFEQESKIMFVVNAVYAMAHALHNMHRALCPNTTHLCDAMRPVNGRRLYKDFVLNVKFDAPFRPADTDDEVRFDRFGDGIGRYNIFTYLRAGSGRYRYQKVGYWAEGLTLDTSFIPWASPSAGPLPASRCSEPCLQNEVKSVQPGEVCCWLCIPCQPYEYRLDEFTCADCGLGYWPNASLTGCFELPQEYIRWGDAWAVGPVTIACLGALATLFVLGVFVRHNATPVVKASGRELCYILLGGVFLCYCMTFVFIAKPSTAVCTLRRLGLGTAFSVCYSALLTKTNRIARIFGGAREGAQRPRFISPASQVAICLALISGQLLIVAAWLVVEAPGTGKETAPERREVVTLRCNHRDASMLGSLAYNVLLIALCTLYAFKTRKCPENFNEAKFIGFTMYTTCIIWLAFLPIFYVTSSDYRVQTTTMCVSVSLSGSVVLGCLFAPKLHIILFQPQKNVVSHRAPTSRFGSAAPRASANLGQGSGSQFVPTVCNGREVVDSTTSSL

O=C(Nc1cccc(Cl)c1)c1ccccn1
fold shift: 0.98 (inactive)

From PubChem BioAssay AID623878 (Vanderbilt Specialized Chemistry Center, 2012)
